# Columns and labels:
# [1] = method code SF, from DOI: 10.1002/jps.2600830715, PMID: 7965680
# [2] = method code SF, from DOI: 10.1016/s0960-894x(04)00268-9, PMID: 15109667; conditions: pH 7.4
# [3] = method code SF-HPLC, from DOI: 10.1016/0378-5173(94)90060-4; conditions: pH 5.0
# [4] = method code SF-HPLC, from DOI: 10.1023/a:1015828802490, PMID: 2308896
# [5] = method code RP-HPLC, from DOI: 10.1021/jm970292n, PMID: 9371243
# [6] = method code SF-AS, from DOI: 10.1002/chin.199708138, PMID: 8917646; conditions: pH 7.4
# [7] = method code SF-HPLC, from DOI: 10.1039/p29890001935
# [8] = method code SF-AS, from DOI: 10.1002/jps.2600790421, PMID: 2352153
# [9] = not given; remark: listed apart in the source
# [10] = method code SF-AS, from DOI: 10.1007/bf02857814, PMID: 1608986
# [11] = not given; remark: listed apart in the source
# [12] = method code SF-AS, from DOI: 10.1006/pest.1994.1014
# [13] = method code SF-HPLC, from PMID: 2780588
# [14] = method code SF-AS, from Kourounakis, P.; Chilliard, N. (1983). Ionization constants and partition coefficients of some 1,1-diphenyl-1-alkoxy-3-dialkylamino-2-propanones with analgesic activity. Pharmazie, 38(6)388-389.; conditions: pH 7.4
# [15] = method code SF-AS, from DOI: 10.1021/jm9800301, PMID: 9748357; conditions: pH 7.4
# [16] = not given; remark: listed apart in the source
# [17] = method code SF-RC, from DOI: 10.1016/j.bmc.2013.10.046, PMID: 24262882; conditions: pH 7.4
# [18] = method code …, from Wiggins, H.; Karcher, A.; Michael Wilson, J.; Robb, I. (2008). Determining Octanol/Water Partitioning Coefficients for Industrial Surfactants. Proc. 15th Annual International Petroleum & Biofuels …
# [19] = method code SF-GLC, from DOI: 10.1023/a:1015803202857, PMID: 2395795
# [20] = method code SF-AS, from DOI: 10.3390/molecules16097565, PMID: 21894089
# [21] = method code SF-RC, from DOI: 10.1021/jm701375u, PMID: 18307287; conditions: pH 7.4
# [22] = method code SF-HPLC, from DOI: 10.1016/j.jpba.2011.06.023, PMID: 21782368; conditions: pH 7.4
# [23] = method code SF-AS, from DOI: 10.1016/s0026-895x(25)13808-x, PMID: 93689
# [24] = not given; remark: listed apart in the source
# [25] = method code SF-HPLC, from Thijssen, W. (1981). The relationship between Log P, Rm, log k' and the constants pi and f: a study on penicillins. Eur J Med Chem, 16(5)449-452.
# [26] = method code SF, from PMID: 8999431; conditions: pH 7.4
# [27] = method code SF-AS, from DOI: 10.1016/0223-5234(94)90120-1; conditions: pH 7.4
# [28] = not given; remark: listed apart in the source
# [29] = not given; remark: listed apart in the source
# [30] = method code SF-HPLC, from DOI: 10.1584/jpestics.11.469
structure (smiles),measurement,setting,value
CC(C)C(NC(=O)N(CCCl)N=O)C(=O)NC1CC(C)(C)N(O)C(C)(C)C1 (configuration not stated),logP,[1],2.09
CC(=O)OC(CC#CCS(=O)(=O)c1ccccc1)Cn1ccnc1[N+](=O)[O-] (configuration not stated),logD,[2],1.35
CCCOC(=O)n1c(NC(=O)OC)nc2cc(C(=O)c3ccccc3)ccc21,logD,[3],3.43
COc1c(C)c2c(c(OC(C)=O)c1C/C=C(\C)CCC(=O)OCC1COC(C)(C)O1)C(=O)OC2 (configuration not stated),logD,[4]; pH 7.4,2.87
COc1c(C)c2c(c(O)c1C/C=C(\C)CCC(=O)O)C(=O)OC2,logD,[4]; pH 2.0,2.76
O=C1c2c(O)cccc2Cc2cccc(-c3ccccc3)c21,logP,[5],3.99
COC(=O)C1=C(C)NC(C)=C(C(=O)OCCO)C1c1cccc(Cl)c1Cl (configuration not stated),logD,[6],2.37
Fc1ccccc1C1OCC2ON=C(c3ccccc3)C2CO1 (configuration not stated),logP,[7],2.35
CC(C)[C@H](NC(=O)[C@H](Cc1ccccc1)N(CCCl)N=O)C(=O)NC(=O)NCCCl,logP,[8],3.46
CN(C)CCC=C1c2ccccc2CCc2c(Cl)cccc21,logP,,5.55
NS(=O)(=O)c1cc(Cl)c(Nc2nc3ccncc3c3c(=O)[nH]ccc23)c(Cl)c1,logP,[9],1.17
CCn1cc(C(=O)NC(CSSCC(N)C(=O)OC)C(=O)OC)c(=O)c2ccc(C)nc21 (configuration not stated),logP,[10],0.91
CC(C)[C@H](NC(=O)[C@H](c1ccccc1)N(CCCl)N=O)C(=O)NC(=O)NCCCl,logP,[8],3.32
C=CCOc1ccccc1OCC(CNC(C)C)OC(=O)/C=C/C (configuration not stated),logP,[11],3.65
CC(=O)Oc1cccc2cc3cccc(OC(C)=O)c3c(OC(C)=O)c12,logP,[5],2.02
O=C1CC[C@@](c2ccccc2)(C2CCN(Cc3ccccc3)CC2)C(=O)N1,logP,,3.55
CC(C)(C)N(NC(=O)c1ccccc1Cl)C(=O)c1ccccc1Cl,logP,[12],2.75
CCCCCCCCNC(=O)Cc1ccc(O)c(OC)c1,logP,[13],2.94
COC(C(=O)N(C)C)(c1ccccc1)c1ccccc1,logD,[14],0.78
COc1ccc(CNC(=O)C(=O)c2c[nH]c3ccc([N+](=O)[O-])cc23)cc1,logD,[15],2.17
C[C@]12CC[C@@H]3c4ccc(O)cc4CC[C@H]3[C@@H]1C[C@@H](O)[C@@H]2O,logP,[16],2.45
CC(C)(O)c1cc(Cl)c(Nc2nc3ccncc3c3c(=O)[nH]ccc23)c(Cl)c1,logP,[9],1.34
COC(=O)C1C(c2ccc(I)cc2)C2CCC1N2CC=CI (configuration not stated),logD,[17],5.29
C=CCOc1ccccc1OCC(CNC(C)C)OC(=O)CCCC (configuration not stated),logP,[11],4
CCCCCCCCOCCOCCOCCOCCO,logP,[18],2.68
OC(CCN1CCCCC1)(c1ccccc1)C1CCCCC1 (configuration not stated),logP,[19],4.49
Clc1ccccc1C1OCC2ON=C(c3ccccc3)C2CO1 (configuration not stated),logP,[7],2.92
C[C@H](c1nc2ccc(F)cc2s1)N1C(=O)C(=O)N(c2ccc(Cl)cc2)C1=O,logP,[20],0.41
Cc1ccccc1C(=O)NN(C(=O)c1ccccc1Cl)C(C)(C)C,logP,[12],2.91
Brc1cccc(N2CCN(Cc3cc4ccccn4n3)CC2)n1,logD,[21],1.78
CCCOC(=O)CC(CNC(=O)OC(C)(C)C)c1ccc(Cl)cc1 (configuration not stated),logD,[22],3
CC(=O)[C@H]1CC[C@H]2[C@@H]3CC=C4C[C@@H](O)CC[C@]4(C)[C@H]3CC[C@]12C,logP,[16],4.22
CC(C)(C)[C@]1(O)CCN2CC3c4ccccc4CCc4cccc(c43)C2C1 (some centres not stated),logP,[23],4.35
CC(=O)OC(CC#CCS(=O)(=O)c1ccc([N+](=O)[O-])cc1)Cn1ccnc1[N+](=O)[O-] (configuration not stated),logD,[2],1.18
COC(=O)C(C)(C)Oc1ccc(C(=O)c2ccc(Cl)cc2)cc1,logP,[24],4.27
CCn1cc(C(=O)NC(Cc2c[nH]cn2)C(=O)OC)c(=O)c2ccc(C)nc21 (configuration not stated),logP,[10],0.31
Cc1onc(-c2ccccc2)c1C(=O)NC1C(=O)N2C1S(=O)C(C)(C)C2C(=O)O (configuration not stated),logP,[25],1.8
CCC(C)C(NC(=O)c1cn(CC)c2nc(C)ccc2c1=O)C(=O)OC (configuration not stated),logD,[26],2.64
CC(C)OC(=O)CC(CNC(=O)OC(C)(C)C)c1ccc(Cl)cc1 (configuration not stated),logD,[22],3.4
COC(=O)C1=C(C)NC(C)=C(C(=O)OCCOC(=O)C2=CN(C)C=CC2)C1c1cccc(Cl)c1Cl (configuration not stated),logD,[6],2.56
Cc1onc(-c2c(Cl)cccc2Cl)c1C(=O)NC1C(=O)N2C1SC(C)(C)C2C(=O)O (configuration not stated),logP,[25],2.89
CN(C)CC(=O)C(Oc1ccccc1)(c1ccccc1)c1ccccc1,logD,[14],1.57
S=C1SCN(Cc2ccccc2)CN1CCc1ccccc1,logD,[27],5
CC1(C)CC(NC(=O)C(Cc2ccccc2)NC(=O)N(CCCl)N=O)CC(C)(C)N1O (configuration not stated),logP,[1],2.3
CCO[C@@H](Cc1ccc(OC/C=C/C#Cc2ccccc2)cc1)C(=O)O,logP,[24],3.87
CC(C)=CCN1CC[C@@]2(C)c3cc(O)ccc3C[C@@H]1[C@@H]2C,logP,[19],3.31
CCCCCCCCOC(=O)Cc1ccc(O)c(OC)c1,logP,[13],4.04
CCn1cc(C(=O)NC(C(=O)OC)C(C)C)c(=O)c2ccc(C)nc21 (configuration not stated),logD,[26],3.61
CN(C)CCC=C1c2ccccc2CCc2ccccc21,logP,[28],5.04
O=C1CN=C(c2ccccc2F)c2cc(Cl)ccc2N1CC(F)(F)F,logP,[29],3.36
CCOC(=O)C(C)Oc1ccc(Oc2cnc3ccccc3n2)cc1 (configuration not stated),logP,[30],3.48
CC(C)c1ccc(N2C(=O)C(=O)N([C@H](C)c3nc4ccc(F)cc4s3)C2=O)cc1,logP,[20],1.64
S=C1SCN(Cc2ccccc2)CN1Cc1ccccc1,logD,[27],4.9
CN1CCN(C2=Nc3cc(Cl)ccc3Nc3ccccc32)CC1,logP,[23],3.32
CCOC(=O)C(C)Oc1ccc(Oc2cnc3cc(C(F)(F)F)ccc3n2)cc1 (configuration not stated),logP,[30],4.37
CCOC(=O)n1c(NC(=O)OC)nc2cc(C(=O)c3ccccc3)ccc21,logD,[3],2.93
Fc1ccccc1C1=NCC(=S)N(CC(F)(F)F)c2ccc(Cl)cc21,logP,[29],4.03
O=C(NCc1ccc(F)cc1)C(=O)c1c[nH]c2ccccc12,logD,[15],2.88
O=C(OCCF)C1C(c2ccc(I)cc2)C2CCC1N2CC=CI (configuration not stated),logD,[17],5.39
CN(C)CCC=C1c2ccccc2CSc2ccccc21,logP,[28],4.49
Oc1ccccc1N1CCN(Cc2cnn3ccccc23)CC1,logD,[21],2.15
CCCCCCCCCCCCOCCOCCOCCOCCOCCOCCO,logP,[18],4.81

# Source: the SangsterLogP compilation
